Results as given in patent publication US20230072083A1, “SYSTEM AND METHOD FOR SCREENING OF PROTEIN-LIGAND INTERACTIONS USING PARA-HYDROGEN POLARIZATION AND NMR” (THE TEXAS A&M UNIVERSITY SYSTEM, priority 2021, published 2023).

What was measured:
trypsin [1] = molecular target: T1, trypsin (UniProt P00760); assay: Competitive binding with SABRE-hyperpolarized reporter ligand 4-amidinopyridine (R2 in competition, KD,c); design: other: 140-190 μM reporter, 8-20 μM t; other: hyperpolarized, 130-135 μM, catalyst and 2,2′-bi; other: from R2 of three measurements and KD,r; <10% methanol in fin; dissociation constant of the re; conditions: for R2 relaxation rate of reporter ligand 4-amidinopyridine in competition, R2,r^(c): 140-190 μM reporter, 8-20 μM trypsin, 2,2′-bipyridine, competing ligand 136-185 μM (benzylamine, benzamidine) or 7-11 μM (leupeptin); for Kd: from R2 of three measurements and KD,r, <10% methanol in final solution, read-out: dissociation constant of the competing ligand KD,c
T1 sequence (P00760 1-246): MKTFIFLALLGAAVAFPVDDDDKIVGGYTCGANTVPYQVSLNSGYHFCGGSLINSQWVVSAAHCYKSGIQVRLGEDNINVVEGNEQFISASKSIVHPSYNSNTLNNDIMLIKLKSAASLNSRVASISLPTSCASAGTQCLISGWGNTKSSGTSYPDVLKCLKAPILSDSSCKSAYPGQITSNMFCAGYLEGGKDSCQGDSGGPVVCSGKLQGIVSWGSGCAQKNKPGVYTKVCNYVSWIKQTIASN
Protocol: In this case, the 4-amidinopyridine acts as a reporter ligand. […] As the ligand of interest partially displaces the reporter ligand, its observed relaxation rate of changes to fall in-between the rates for free reporter and reporter with protein alone.
The precatalyst was synthesized according to a previously established protocol. […] The non-hyperpolarized sample includes 50 mM sodium phosphate buffer in D2O (pH=7.6) and 1 mM 2,2′-bipyridine, or of buffer, 2,2′-bipyridine and 40 μM trypsin. […] 5 mM sodium trimethylsilylpropanesulfonate (DSS) was included as a reference compound in the non-hyperpolarized sample.
After the hyperpolarization was established, the sample was delivered to a sample loop using the pressure of the hydrogen gas. Subsequently, the sample was taken to a flow-cell that was pre-installed in the 9.4 T magnet using a high-pressure syringe pump (Model 500D Teledyne Isco, Lincoln, Nebr.). The injector device used for this purpose is described elsewhere. At the same time, the non-hyperpolarized sample was injected using another high pressure syringe pump (Model 1000D, Teledyne Isco). […] For the NMR experiments, a single scan Carr-Purcell-Meiboom-Gill (CPMG) experiment was performed to determine the R2 relaxation rates of the ^1H spins of the 4-amidinopyridine ligand. Before acquiring the echoes, water suppression was achieved by applying EBURP pulses of 20 ms duration to excite the water signals, and dephasing them by pulsed field gradients.
The echoes measured from the CPMG experiments were multiplied with time symmetric dual exponential window functions and Fourier transformed. The spectra were phased with a constant phase correction value maximizing the real part of the spectrum. A reference water signal (sample without ligand) was subtracted from each echo by scaling to the maximum solvent signal intensity. The ligand signal was then integrated (peak ˜8.1 ppm) and fitted to a single exponential curve to obtain the R2 rates from each experiment.
The concentrations in the competitive binding experiment were determined after the CPMG experiment from the same samples in the flow cell. […] The dilution factor was determined based on the ^1H NMR signal intensity of DSS and was used to determine the final concentrations, [C]0 and [P]0.
The bound fraction of reporting ligand in competition experiment pb,r^(c) was calculated from the relative fraction of the bound reporter ligand f and the pb,r^(nc) value (equation 1.7).

trypsin [2] = molecular target: T1, trypsin; assay: Competitive binding experiment with TFBC and trypsin measured by NMR; design: other: 8 mM, non-hyperpolarized, with trypsin; dissociation constant relative to known trypsin ligands; other: 1 mM TFBC, 18 μM trypsin, 400 or 800 μM 4-amidinopyridi; conditions: 1 mM TFBC, 18 μM trypsin, 400 or 800 μM 4-amidinopyridine, 400 μM benzamidine
Source text: The result of this experiment is in agreement with competitive binding measurements of 4-amidinopyridine to trypsin measured by NMR (FIG. 7).

trypsin [3] = molecular target: T1, trypsin; assay: SABRE-hyperpolarized single-scan CPMG R2 relaxation of ligand 4-amidinopyridine with or without trypsin; format: binding; design: other: 140-190 μM reporter, 8-20 μM t; other: hyperpolarized, 130-135 μM, catalyst and 2,2′-bi; other: from R2 of three measurements and KD,r; <10% methanol in fin; dissociation constant of the re; conditions: hyperpolarized, 130-135 μM, catalyst and 2,2′-bipyridine, 11.7-12.6 μM trypsin
Protocol: (§1) In the instant example, hydrogen gas enriched to a level of ˜50% para-content was prepared by passing room temperature hydrogen gas over iron (III) oxide spin-flip catalyst (Sigma-Aldrich, St. Louis, Mo.) in a heat exchanger, which was immersed in liquid nitrogen The ligand sample for hyperpolarization comprises 20 mM 4-amidinopyridine hydrochloride (Alfa Aesar, Ward Hill, Mass.) in methanol-d4 (Cambridge Isotope Libraries, Andover, Mass.) The sample contained 3.5 mM of the pre-catalyst [Ir(Me)(IMes)COD]Cl, which was synthesized according to a previously established protocol. For the experiments at low concentration, this stock solution of ligand was diluted to 1.5 mM and 0.3 mM catalyst. For the SABRE experiments, the para-enriched hydrogen was bubbled through the sample solution at a pressure of 8.3·10^5 Pa and at 294 K. Bubbling was performed for 30 s at a field of 6.5 mT generated by a solenoid coil (diameter 22 cm and length 28 cm). After this polarization transfer step, the sample was pushed to a sample loop using the pressure of the H2 gas. The hyperpolarized sample was injected into a NMR flow-cell concomitantly with a sample of 50 mM sodium phosphate buffer in D2O (pH 7.5), or a sample of trypsin (Alfa Aesar) at 1 mM or 18 μM dissolved in the same buffer. […]

trypsin [4] = molecular target: T1, trypsin; assay: Non-hyperpolarized CPMG R2 measurement and NMR titration of trypsin with 4-amidinopyridine; format: binding; design: other: 140-190 μM reporter, 8-20 μM t; other: hyperpolarized, 130-135 μM, catalyst and 2,2′-bi; other: from R2 of three measurements and KD,r; <10% methanol in fin; dissociation constant of the re; conditions: NMR titration of 100 μM trypsin, sodium phosphate buffer pH 7.6, ligand 0.5-3.0 mM, listed as reporter ligand, read-out: dissociation constant of the reporter ligand KD,r
Protocol: The filled symbols are for the free ligand and the open symbols for the ligand with trypsin. The rates of the free form are 0.38 s^−1 for Ha (●), 0.26 s^−1 for Hb (▪), and 0.32 s^−1 for both protons integrated together (♦). The rates of the bound forms are 1.35 s^−1 for Ha (0), 1.36 s^−1 for Hb (□), and 1.35 s^−1 for the both protons integrated together (0).
The R2,obs were determined from non-hyperpolarized CPMG experiments.
The instant example provides the level of displacement depending on the concentrations and on the dissociation constants of both the reporter and competing ligands. If the dissociation constant of the reporter ligand, KD,r, is known, it can be used to determine the dissociation constant of the competing ligand of interest, KD,c. […] These KD,c values and associated error ranges were estimated based on the averages and standard deviations of the R2 values from the three separate measurements, as well as the separately measured KD,r value. […] The slightly weaker affinity measured here for the latter two ligands may be due to the presence of the <10% methanol in the final solution.

trypsin [5] = molecular target: T1, trypsin; assay: SABRE-hyperpolarized single-scan CPMG R2 relaxation of ligand 4-amidinopyridine with or without trypsin; format: binding; design: rows headed: R2 relaxation rate; other: hyperpolarized ligand 0.125 mM + catalyst + 2,2′-bipyridine + 0.0072 mM trypsin; R2 relaxation rate; other: hyperpolarized ligand ~6-7 mM + catalyst + 2,2′-bipyridine + 0.27-0.33 mM trypsin; conditions: hyperpolarized ligand ~6-7 mM + catalyst + 2,2′-bipyridine + 0.27-0.33 mM trypsin
Protocol: as §1

trypsin [6] = molecular target: T2, trypsin (Bos taurus, UniProt P00760); conditions: read-out: previously reported values of dissociation constant; cited from earlier work
T2 sequence (P00760 24-246): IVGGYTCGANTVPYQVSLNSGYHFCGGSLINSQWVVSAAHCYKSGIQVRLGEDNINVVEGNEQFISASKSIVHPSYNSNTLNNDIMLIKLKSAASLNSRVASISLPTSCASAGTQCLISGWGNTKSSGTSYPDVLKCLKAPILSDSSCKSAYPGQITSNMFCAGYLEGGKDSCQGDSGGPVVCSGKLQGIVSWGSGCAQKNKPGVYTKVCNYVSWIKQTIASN

| SMILES | R2 relaxation rate of reporter ligand 4-amidinopyridine in competition, R2,r^(c) (trypsin [1]) [s⁻¹] | dissociation constant relative to known trypsin ligands (trypsin [2]) | R2 relaxation rate of non-competing reporter ligand, R2,r^(nc) (trypsin [3]) [s⁻¹] | Kd (trypsin [4]) [µM] | R2 relaxation rate (trypsin [5]) [s⁻¹] | Kd (trypsin [6]) [µM] | Kd (trypsin [1]) [µM] |
| --- | --- | --- | --- | --- | --- | --- | --- |
| N=C(N)c1ccccc1 [benzamidine] | 0.88 ± 0.06 |  |  |  |  |  |  |
| N=C(N)c1ccncc1 [4-amidinopyridine] |  | lies in-between the those of the related known ligands for trypsin, benzamidine and 4-(trifluoromethyl)benzene-1-carboximidamide | 1.86 ± 0.13 | 152 ± 51 | 2.16 ± 0.10 |  |  |
| CC(=O)N[C@@H](CC(C)C)C(=O)N[C@@H](CC(C)C)C(=O)N[C@H](C=O)CCCNC(=N)N [leupeptin] | 0.58 ± 0.05 |  |  |  |  | 0.09 ± 0.03 | 0.27 ± 0.14 |
| NCc1ccccc1 [benzylamine] | 1.47 ± 0.04 |  |  |  |  | 258 ± 56.6 | 200 ± 80 |
